The text below walks through data of PubChem BioAssay (NCI).

Holding throughout (experiment): NCI tumour cell line growth inhibition, 48 h
Assay [1] deals with CCRF-CEM leukemia.
Assay [2] relates to COLO 205 colon.
Assay [3] deals with HCC-2998 colon.
Assay [4] concerns HT29 colon.
Assay [5] has as its system IGROV1 ovarian.
Assay [6] deals with MDA-MB-435.
Assay [7] has as its system MDA-N.
For assay [8], the system named is NCI-H23 lung.
Assay [9] has as its system NCI-H460 lung.
Assay [10] concerns OVCAR-4 ovarian.
In assay [11] the test system is SF-295 CNS.
Assay [12] has as its system SN12C renal.
The test system of assay [13] is SW-620 colon.
For assay [14], the system named is TK-10 renal.
Assay [15] concerns U251 CNS.

Molecules are shown by their SMILES. Values after ≈ are worked out from the molar mass of the structure shown.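 Cells were grown in 96-well plates and exposed to each compound for 48 hours at five concentrations; endpoints were interpolated linearly between bracketing concentrations, or set to the highest concentration if not reached. Here, GI50 denotes the concentration required for 50% inhibition of growth. TGI: total growth inhibition.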

As to `c1ccc(C2=NN2c2ccccc2)cc1`, the TGI in [1], in assay [2], in assay [3], in assay [4], in [5] and in assay [6] was greater than 100 µM in each case. Further, the TGI in assay [7], in [8], in assay [9], in assay [10], in assay [11] and in [12] was greater than 100 µM in each case. Moreover, the TGI in assay [13], in assay [14] and in [15] was greater than 100 µM throughout.
For the molecule `CC1(C)OCC(CO)(CO)CO1`, the TGI in assay [1], in assay [2], in assay [3], in [4], in assay [6] and in assay [7] was greater than 100 µM throughout. Moreover, the TGI in assay [8], in assay [9], in assay [10], in [11], in assay [12] and in assay [13] was greater than 100 µM each time. Also, the TGI in [14] and in assay [15] was greater than 100 µM in each case.
With `O=Cc1cn(CCCCCCCCn2cc(C=O)c3ccccc32)c2ccccc12`, the TGI in [1], in assay [2], in assay [3], in assay [4], in [5] and in assay [6] was greater than 10 µM each time. The TGI in [7], in assay [8], in assay [9], in [10], in assay [11] and in assay [12] was greater than 10 µM each time. Besides, the TGI in assay [13], in assay [14] and in [15] was greater than 10 µM each time.
On to `O=C=C=P(c1ccccc1)(c1ccccc1)c1ccccc1`, for which the TGI in assay [1] was greater than 100 µM; in assay [2], 75.7 µM; in assay [3] it was greater than 100 µM; in [5] it was greater than 100 µM; in assay [8], greater than 100 µM; in [9] it was greater than 100 µM. Moreover, the TGI in assay [10], in assay [11], in assay [12], in assay [13] and in [15] was greater than 100 µM throughout.
As to `Cc1nc2nc(C)n(CCN3CCOCC3)c(=O)c2c(-c2cccc([N+](=O)[O-])c2)c1C(=O)CCCCCCCCCCN1CCC(c2ccccc2)(c2ccccc2)CC1`, the GI50 in [3] was 2.37 µg/mL (≈ 2.91 µM); in [6], 1.9 µg/mL (≈ 2.34 µM); in assay [8], 1.81 µg/mL (≈ 2.22 µM); in assay [11] it was 0.78 µg/mL (≈ 0.96 µM); in assay [14], 2.41 µg/mL (≈ 2.96 µM). Also, the TGI in assay [3] worked out at 4.56 µg/mL; in [6], 3.79 µg/mL; in assay [8] it was 3.71 µg/mL; in [11] it was 2.65 µg/mL; in [14], 4.45 µg/mL.
